Experimental findings from patent US5436254A, “Carbostyril derivatives” (Otsuka Pharmaceutical Company, Ltd., priority 1989, dated 1995) are described below.

Chain of V1 receptor (P30560 whole entry): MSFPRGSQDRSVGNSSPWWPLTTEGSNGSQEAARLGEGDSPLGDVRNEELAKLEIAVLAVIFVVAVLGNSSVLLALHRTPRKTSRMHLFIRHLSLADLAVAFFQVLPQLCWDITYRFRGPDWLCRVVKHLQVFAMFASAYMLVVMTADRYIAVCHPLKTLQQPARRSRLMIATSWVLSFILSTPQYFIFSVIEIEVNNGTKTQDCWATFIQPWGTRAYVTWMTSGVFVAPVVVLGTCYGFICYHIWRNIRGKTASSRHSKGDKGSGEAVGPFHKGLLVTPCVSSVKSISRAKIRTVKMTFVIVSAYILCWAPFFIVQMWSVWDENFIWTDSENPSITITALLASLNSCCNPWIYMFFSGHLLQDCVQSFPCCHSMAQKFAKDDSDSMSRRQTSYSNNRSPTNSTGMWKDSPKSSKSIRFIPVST

One assay concerns the target V1 receptor (Rattus norvegicus, UniProt P30560). The experiment in a line: biochemical. Format: binding.
Settings: not given
The term IC50 denotes the concentration at which inhibition is half-maximal. `COc1ccc(C(=O)N2CCC(N3C(=O)CCc4ccccc43)CC2)c(OCCOC(C)=O)c1` [Example 69, 1-{1-[2-(2-Acetoxyethoxy)-4-methoxybenzoyl]-4-piperidinyl}-3,4-dihydrocarbostyril]: the half-inhibitory concentration (IC50) was found to be 0.42 µM.
In turn, `COCCOc1cc(OC)ccc1C(=O)N1CCC(N2C(=O)CCc3ccccc32)CC1` [Example 70, 1-{1-[2-(2-Methoxyethoxy)-4-methoxybenzoyl]-4-piperidinyl}-3,4-dihydrocarbostyril] came in with a half-inhibitory concentration (IC50) of 0.32 µM.
The same measure, in the same setting: under `O=C(c1ccccc1)c1ccc(C(=O)N2CCC(N3C(=O)CCc4ccccc43)CC2)cc1` [Example 72, 1-[1-(4-Benzoylbenzoyl)-4-piperidinyl]-3,4-dihydrocarbostyril] stands 0.48 µM.
`CCSc1ccc(C(=O)N2CCC(N3C(=O)CCc4ccccc43)CC2)cc1` [Example 74, 1-[1-(4-Ethylthiobenzoyl)-4-piperidinyl]-3,4-dihydrocarbostyril]: it took 0.18 µM to reach half-maximal inhibition (IC50).
For the compound `Cc1ccc(C(=O)N2CCC(N3C(=O)CCc4ccccc43)CC2)cc1C` [Example 78, 1-[1-(3,4-Dimethylbenzoyl)-4-piperidinyl]-3,4-dihydrocarbostyril], half-maximal inhibition (IC50) required 0.4 µM.
Turning to `COc1ccc(C(=O)N2CCC(N3C(=O)CCc4cc(F)ccc43)CC2)c(OC)c1` [Example 79, 6-Fluoro-1-[1-(2,4-dimethoxybenzoyl)-4-piperidinyl]-3,4-dihydrocarbostyril], the IC50 is 0.5 µM.
Still for that read-out and setting: as for `COc1cc(SC)ccc1C(=O)N1CCC(N2C(=O)CCc3ccc(F)cc32)CC1` [Example 80, 7-Fluoro-1-[1-(2-methoxy-4-methylthiobenzoyl)-4-piperidinyl]-3,4-dihydrocarbostyril], the figure is 0.08 µM; as for `COc1ccc(C(=O)N2CCC(N3C(=O)CCc4ccc(C)cc43)CC2)c(OC)c1` [Example 81, 7-Methyl-1-[1-(2,4-dimethoxybenzoyl)-4-piperidinyl]-3,4-dihydrocarbostyril], 0.21 µM; as for `O=C1CCc2ccccc2N1C1CCN(C(=O)C23CC4CC(CC(C4)C2)C3)CC1` [Example 83, 1-(1-Tricyclo[3.3.1.1^3,7]decanylcarbonyl-4-piperidinyl)-3,4-dihydrocarbostyril], 0.5 µM.
Same read-out and setting: under `COc1ccc(N2CCN(CCCOc3ccc(C(=O)N4CCC(N5C(=O)CCc6ccccc65)CC4)cc3)CC2)cc1` [Example 86, 1-{1-[4-(3-[4-(4-Methoxyphenyl)-1-piperazinyl]propoxy)benzoyl]-4-piperidinyl)-3,4-dihydrocarbostyril] stands 0.57 µM; under `C=CCOCCCOc1ccc(C(=O)N2CCC(N3C(=O)CCc4ccccc43)CC2)cc1` [Example 87, 1-(1-[4-(3-Allyloxypropoxy)benzoyl]-4-piperidinyl}-3,4-dihydrocarbostyril], 0.53 µM.
Still for that read-out and setting: under `NC(=O)CCCNc1ccc(C(=O)N2CCC(N3C(=O)CCc4ccccc43)CC2)cc1` [Example 88, 1-{1-[4-(3-Carbamoylpropylamino)benzoyl]-4-piperidinyl)-3,4-dihydrocarbostyril] stands 1 µM.
With `CCSc1nccn1-c1ccc(C(=O)N2CCC(N3C(=O)CCc4ccccc43)CC2)cc1` [Example 89, 1-{1-[4-(2-Ethylthioimidazol-1-yl)benzoyl]-4-piperidinyl)-3,4-dihydrocarbostyril], the half-maximal inhibitory concentration (IC50) stood at 1.6 µM.
`C=CCN(C)c1ccc(C(=O)N2CCC(N3C(=O)CCc4ccccc43)CC2)cc1` [Example 90, 1-{1-[4-(N-Allyl-N-methylamino)benzoyl]-4-piperidinyl)-3,4-dihydrocarbostyril] registered an IC50 of 1.1 µM.
Turning to `O=C(c1ccc(N2CCCC2)cc1)N1CCC(N2C(=O)CCc3ccccc32)CC1` [Example 91, 1-{1-[4-(1-Pyrrolidinyl)benzoyl]-4-piperidinyl}-3,4-dihydrocarbostyril], inhibition was half-maximal at 0.72 µM (IC50).
Still for that read-out and setting: under `CN(CCCOc1ccc(C(=O)N2CCC(N3C(=O)CCc4ccccc43)CC2)cc1)C(=O)c1ccccc1` [Example 92, 1-[1-{4-[3-(N-Methyl-N-benzoylamino)propoxy]benzoyl}-4-piperidinyl)-3,4-dihydrocarbostyril] stands 1.2 µM.
The same measure, in the same setting: as for `O=C(c1ccc(OCCCN2CCN(c3ccccc3)CC2)cc1)N1CCC(N2C(=O)CCc3ccccc32)CC1` [Example 93, 1-[1-{4-[3-(4-Phenyl-1-piperazinyl)propoxy]benzoyl)-4-piperidinyl]-3,4-dihydrocarbostyril], the figure is 0.64 µM.
For `O=C(OCCCOc1ccc(C(=O)N2CCC(N3C(=O)CCc4ccccc43)CC2)cc1)c1ccccc1` [Example 94, 1-{1-[4-(3-Benzoyloxypropoxy)benzoyl]-4-piperidinyl}-3,4-dihydrocarbostyril], the IC50 was 0.63 µM.
The same measure, in the same setting: under `CCSCCCOc1ccc(C(=O)N2CCC(N3C(=O)CCc4ccccc43)CC2)cc1` [Example 95, 1-{1-[4-(3-Ethylthiopropoxy)benzoyl]-4-piperidinyl}-3,4-dihydrocarbostyril] stands 0.96 µM; under `O=C(c1ccc(OCc2ccccc2)cc1)N1CCC(N2C(=O)CCc3ccccc32)CC1` [Example 97, 1-[1-(4-Benzyloxybenzoyl)-4-piperidinyl]-3,4-dihydrocarbostyril], 1.1 µM.
The compound `O=C(c1ccc(OC2C=CCCC2)cc1)N1CCC(N2C(=O)CCc3ccccc32)CC1` (centres unmarked) [Example 98, 1-{1-[4-(2-Cyclohexenyloxy)benzoyl]-4-piperidinyl}-3,4-dihydrocarbostyril] yielded an IC50 of 0.77 µM.
Same read-out and setting: under `O=C(c1ccc(OC2CCCCC2)cc1)N1CCC(N2C(=O)CCc3ccccc32)CC1` [Example 99, 1-[1-(4-Cyclohexyloxybenzoyl)-4-piperidinyl]3,4-dihydrocarbostyril] stands 0.96 µM; under `CS(=O)(=O)Oc1ccc(C(=O)N2CCC(N3C(=O)CCc4ccccc43)CC2)cc1` [Example 100, 1-[1-(4-Methylsulfonyloxybenzoyl)-4-piperidinyl]-3,4-dihydrocarbostyril], 0.9 µM; under `O=C(c1ccc(OCC2CO2)cc1)N1CCC(N2C(=O)CCc3ccccc32)CC1` (centres unmarked) [Example 101, 1-[1-(4-Glycidoxybenzoyl)-4-piperidinyl]-3,4-dihydrocarbostyril], 1.6 µM.
The same measure, in the same setting: under `CCOC(=O)CN(C)c1cc(OC)ccc1C(=O)N1CCC(N2C(=O)CCc3ccccc32)CC1` [Example 102, 1-{1-[4-Methoxy-2-(N-methyl-N-ethoxycarbonylmethylamino)benzoyl]-4-piperidinyl}-3,4-dihydrocarbostyril] stands 1.1 µM; under `COc1ccc(C(=O)N2CCC(N3C(=O)CCc4ccccc43)CC2)c(NC(=O)OCc2ccccc2)c1` [Example 103, 1-[1-(4-Methoxy-2-benzyloxycarbonylaminobenzoyl)-4-piperidinyl]-3,4-dihydrocarbostyril], 0.7 µM; under `COc1ccc(C(=O)N2CCC(N3C(=O)CCc4ccccc43)CC2)c(NC(C)=O)c1` [Example 104, 1-[1-(4-Methoxy-2-acetylaminobenzoyl)-4-piperidinyl]-3,4-dihydrocarbostyril], 1 µM.
The same measure, in the same setting: as for `CNC(=O)CNc1cc(OC)ccc1C(=O)N1CCC(N2C(=O)CCc3ccccc32)CC1` [Example 105, 1-[1-(4-Methoxy-2-methylaminocarbonylmethylamino)-4-piperidinyl]-3,4-dihydrocarbostyril], the figure is 1.2 µM.
For `O=C(c1ccc(C(F)(F)F)cc1)N1CCC(N2C(=O)CCc3ccccc32)CC1` [Example 106, 1-[1-(4-Trifluoromethylbenzoyl)-4-piperidinyl]-3,4-dihydrocarbostyril], the half-maximal inhibitory concentration (IC50) was 0.7 µM.
Still for that read-out and setting: under `CC(=O)c1ccc(C(=O)N2CCC(N3C(=O)CCc4ccccc43)CC2)cc1` [Example 107, 1-[1-(4-Acetylbenzoyl)-4-piperidinyl]-3,4-dihydrocarbostyril] stands 0.75 µM.
On the same count and under the same terms, as for `O=C(c1ccc(C=NO)cc1)N1CCC(N2C(=O)CCc3ccccc32)CC1` [Example 108, 1-[1-(4-Hydroxyiminomethylbenzoyl)-4-piperidinyl]-3,4-dihydrocarbostyril], the figure is 1.4 µM; as for `COCc1ccc(C(=O)N2CCC(N3C(=O)CCc4ccccc43)CC2)cc1` [Example 109, 1-[1-(4-Methoxymethylbenzoyl)-4-piperidinyl]-3,4-dihydrocarbostyril], 0.75 µM.
Regarding `C[Si](C)(C)c1ccc(C(=O)N2CCC(N3C(=O)CCc4ccccc43)CC2)cc1` [Example 110, 1-[1-(4-Trimethylsilylbenzoyl)-4-piperidinyl]-3,4-dihydrocarbostyril], the concentration for half-maximal inhibition (IC50) worked out at 1.3 µM.
The same measure, in the same setting: as for `C=CCc1ccc(C(=O)N2CCC(N3C(=O)CCc4ccccc43)CC2)cc1` [Example 111, 1-[1-(4-Allylbenzoyl)-4-piperidinyl]-3,4-dihydrocarbostyril], the figure is 0.73 µM.
The same measure, in the same setting: under `O=C(c1ccc(C2CCCCC2)cc1)N1CCC(N2C(=O)CCc3ccccc32)CC1` [Example 112, 1-[1-(4-Cyclohexylbenzoyl)-4-piperidinyl]-3,4-dihydrocarbostyril] stands 0.97 µM; under `O=C(c1ccc2c(c1)OCO2)N1CCC(N2C(=O)CCc3ccccc32)CC1` [Example 113, 1-[1-(3,4-Methylenedioxybenzoyl)-4-piperidinyl]-3,4-dihydrocarbostyril], 0.98 µM; under `CC(C)=CCCC(C)=CC(=O)N1CCC(N2C(=O)CCc3ccccc32)CC1` [Example 114, 1-[1-(2,6-Dimethyl-1,5-heptadiene-1-carbonyl)-4-piperidinyl]-3,4-dihydrocarbostyril], 1.5 µM.
On the same count and under the same terms, under `O=C(CC12CC3CC(CC(C3)C1)C2)N1CCC(N2C(=O)CCc3ccccc32)CC1` [Example 115] stands 0.7 µM.

Staying with this assay, now noted: [H]3-Arg-vasopressin 2×10^-10 M, rat liver plasma membrane, 37° C., 10 minutes, pH 8.0; read-out: IC50.
As for `COc1cc(SC)ccc1C(=O)N1CCC(N2C(=O)CCc3ccccc32)C1` (centres unmarked) [Example 84, 1-[1-(2-Methoxy-4-methylthiobenzoyl)-3-pyrrolidinyl]-3,4-dihydrocarbostyril], the IC50 is 7.1 µM.
Still for that read-out and setting: under `COc1ccc(N(Cc2ccccc2)C(=O)c2ccc(N3C(=O)CCc4ccccc43)cc2)cc1` [Example 85] stands 3 µM.

The assay is the same for the next values; noted with them: read-out: IC50.
Turning to `CCOc1ccc(C(=O)N2CCC(n3c(=O)ccc4ccccc43)CC2)c(OC)c1` [Example 82, 1-[1-(2-Methoxy-4-ethoxybenzoyl)-4-piperidinyl]carbostyril], the IC50 was found to be 0.33 µM.
